Measurements taken from publication PMC6092513, “Mechanisms Underlying the Strong Inhibition of Muscle-Type Nicotinic Receptors by Tetracaine” (Frontiers in Molecular Neuroscience, 2018).

How the values were obtained:
[1] = target: T1, muscle-type nicotinic acetylcholine receptor (nAChR) (Torpedo marmorata, UniProt P02711+Q6S3H8+Q6S3H9+Q6S3I0); experiment: two-electrode voltage clamp of ACh-elicited peak currents ([…] ACh) in Xenopus oocytes bearing transplanted nAChRs; type: cell-based
T1 construct: gene CHRNA1; native heteropentameric receptor purified from electroplaques, reconstituted in asolectin lipids and transplanted to Xenopus oocytes; with beta1, gamma and delta nAChR subunits (CHRNB1, CHRNG, CHRND) with two alpha1

[2] = target: T1, muscle-type nicotinic acetylcholine receptor (nAChR); experiment: two-electrode voltage clamp, ACh concentration-current curve in Xenopus oocytes bearing transplanted nAChRs; type: cell-based

T1 sequence (P02711 25-461): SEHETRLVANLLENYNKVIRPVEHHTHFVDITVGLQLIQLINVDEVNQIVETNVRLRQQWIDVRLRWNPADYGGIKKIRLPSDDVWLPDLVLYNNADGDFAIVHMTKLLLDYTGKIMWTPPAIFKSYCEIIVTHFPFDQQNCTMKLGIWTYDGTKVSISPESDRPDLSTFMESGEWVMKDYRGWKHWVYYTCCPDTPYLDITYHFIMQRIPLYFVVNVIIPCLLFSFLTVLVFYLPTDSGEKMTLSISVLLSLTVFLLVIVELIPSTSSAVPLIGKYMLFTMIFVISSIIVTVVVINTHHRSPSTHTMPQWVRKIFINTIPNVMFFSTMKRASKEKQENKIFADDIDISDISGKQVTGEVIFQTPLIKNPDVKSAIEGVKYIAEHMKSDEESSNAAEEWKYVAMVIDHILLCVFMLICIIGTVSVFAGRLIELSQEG
T1 sequence (Q6S3I0 25-493): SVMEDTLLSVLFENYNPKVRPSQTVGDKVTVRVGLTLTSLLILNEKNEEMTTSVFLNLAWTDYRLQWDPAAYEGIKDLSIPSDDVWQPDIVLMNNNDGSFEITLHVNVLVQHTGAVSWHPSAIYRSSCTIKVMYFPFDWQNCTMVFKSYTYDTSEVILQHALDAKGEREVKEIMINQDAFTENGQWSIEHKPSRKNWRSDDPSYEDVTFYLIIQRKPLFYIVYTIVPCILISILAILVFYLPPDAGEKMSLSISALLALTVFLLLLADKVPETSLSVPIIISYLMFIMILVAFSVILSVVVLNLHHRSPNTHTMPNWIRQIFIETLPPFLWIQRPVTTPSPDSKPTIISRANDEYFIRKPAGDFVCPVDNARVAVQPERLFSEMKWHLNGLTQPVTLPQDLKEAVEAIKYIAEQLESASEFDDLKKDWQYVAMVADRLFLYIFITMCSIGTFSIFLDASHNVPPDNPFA
T1 sequence (Q6S3H9 18-505): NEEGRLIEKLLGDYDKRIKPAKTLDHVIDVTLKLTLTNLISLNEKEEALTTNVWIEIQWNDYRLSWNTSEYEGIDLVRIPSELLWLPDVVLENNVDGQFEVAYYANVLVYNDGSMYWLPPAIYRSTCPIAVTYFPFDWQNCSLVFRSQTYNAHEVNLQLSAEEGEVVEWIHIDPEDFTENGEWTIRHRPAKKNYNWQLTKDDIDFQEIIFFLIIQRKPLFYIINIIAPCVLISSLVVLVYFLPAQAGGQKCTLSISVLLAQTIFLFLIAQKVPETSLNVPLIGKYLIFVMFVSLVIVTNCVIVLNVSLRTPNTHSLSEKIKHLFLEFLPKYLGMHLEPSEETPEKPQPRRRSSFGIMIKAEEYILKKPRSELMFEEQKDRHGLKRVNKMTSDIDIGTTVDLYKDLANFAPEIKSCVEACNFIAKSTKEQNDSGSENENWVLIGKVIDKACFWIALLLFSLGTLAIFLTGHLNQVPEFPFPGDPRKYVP
T1 sequence (Q6S3H8 22-522): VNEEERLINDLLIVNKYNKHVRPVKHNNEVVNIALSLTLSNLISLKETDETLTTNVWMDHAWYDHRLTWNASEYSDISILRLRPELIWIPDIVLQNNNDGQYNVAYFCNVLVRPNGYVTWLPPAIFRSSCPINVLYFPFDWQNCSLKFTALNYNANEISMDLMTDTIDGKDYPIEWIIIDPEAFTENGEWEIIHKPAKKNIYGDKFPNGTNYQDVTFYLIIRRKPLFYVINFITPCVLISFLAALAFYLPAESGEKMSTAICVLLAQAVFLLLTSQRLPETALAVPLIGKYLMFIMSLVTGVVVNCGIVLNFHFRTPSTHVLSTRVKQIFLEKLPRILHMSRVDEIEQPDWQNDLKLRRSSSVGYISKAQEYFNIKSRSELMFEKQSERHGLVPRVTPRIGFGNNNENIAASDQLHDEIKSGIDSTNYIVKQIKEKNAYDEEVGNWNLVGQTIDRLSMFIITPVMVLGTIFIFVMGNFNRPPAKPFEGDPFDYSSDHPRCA

Row | Compound | IC50 [1] | EC50 [2]
1 | CCCCNc1ccc(C(=O)OCCN(C)C)cc1 [Ttc, 2-(dimethylamino)ethyl 4-(butylamino)benzoate] | 0.7 µM | –
2 | CC(=O)OCC[N+](C)(C)C [ACh, acetylcholine] | – | 37 µM
